Test results: patent US9765018B2, “IDO inhibitors” (BRISTOL-MYERS SQUIBB COMPANY, priority 2013, dated 2017)

Each molecule was assayed against IDO (Homo sapiens (Human), UniProt P14902) (assay: Kynurenine assay in IFN-γ-stimulated Hela cells). Conditions: 20 h, read-out: Hela Kyurenine (IC50).
Type: cell-based
Experimental: Reagents: Hela cells (ATCC, CCL-2)
IFNg (R&D, 28-IF-100)—resuspend at 10 ug/mL in PBS with 0.1% BSA 30% TCA
Ehrlich reagent (2% w/v p-dimethylaminobenzaldehyde in glacial acetic acid)
Cell Lines and Culture Conditions
Hela cancer cell lines were acquired from the American Type Culture Collection. Cells were maintained in phenol red free-RPMI1640 medium containing high glucose and L-glutamine (Invitrogen) supplemented with 10% fetal bovine serum (FBS; Invitrogen). Cell cultures were incubated at 37° C., 5% CO2, and 100% humidity.
Cell Treatment and Kynurenine Assay
Hela cells were seeded on 96-well plates (40,000 cells per well) and allowed to adhere for 5-6 hours. Cells were then treated with vehicle (DMSO) or with IDO inhibitor at a top dose of 30 μM (3-fold dilution all the way down to 1.5 nM). A final concentration of 100 ng/mL of human recombinant IFN-γ (R&D, 28-IF-100) was immediately added to the cells to stimulate IDO expression. Treated cells were then incubated for 20 hours at 37° C. At the end of the 20 h incubation, reactions were terminated by the addition of 30% TCA to each well. Plates were incubated for 30 minutes at 50° C. to hydrolyze N-formylkynurenine to kynurenine. Cells were centrifuged 10 minutes at 2400 rpm. 100 ul of supernatants were transferred to new 96 flat well plates and mixed with 100 ul Ehrlich reagent. The resulting solution was incubated 10 minutes at RT. Absorbance at 490 nm was read using Spectra Max 384 (Molecular Devices).

IDO, sequence (P14902 whole entry): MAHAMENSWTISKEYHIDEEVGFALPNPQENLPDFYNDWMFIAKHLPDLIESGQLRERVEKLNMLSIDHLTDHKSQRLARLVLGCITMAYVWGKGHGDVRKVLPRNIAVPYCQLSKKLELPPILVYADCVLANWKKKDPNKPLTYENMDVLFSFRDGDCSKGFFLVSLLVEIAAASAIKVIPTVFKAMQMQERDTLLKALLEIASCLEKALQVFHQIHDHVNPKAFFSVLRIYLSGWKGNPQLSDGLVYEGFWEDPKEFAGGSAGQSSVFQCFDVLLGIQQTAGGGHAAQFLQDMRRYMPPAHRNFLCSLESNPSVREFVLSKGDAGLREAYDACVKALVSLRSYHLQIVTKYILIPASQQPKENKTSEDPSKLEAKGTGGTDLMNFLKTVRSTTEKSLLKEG

Row | IC50 [nM] | SMILES
1 | 1250 | Cc1cccc(NC(=O)Nc2cc(-c3ccc(C(=O)O)c(Cl)c3)ccc2Oc2ccccc2C(F)(F)F)c1 [Example 204, 3-chloro-3′-(3-m-tolylureido)-4′-(2-(trifluoromethyl)phenoxy)biphenyl-4-carboxylic acid]
2 | 160 | COc1ccc(-c2ccc(Oc3ccccc3C(C)(C)C)c(NC(=O)Nc3cccc(Cl)c3C)c2)cc1C(=O)O [Example 98, 4′-(2-(tert-butyl)phenoxy)-3′-(3-(3-chloro-2-methylphenyl)ureido)-4-methoxy-[1,1′-biphenyl]-3-carboxylic acid]
3 | 370 | COc1ccc(-c2ccc(Oc3ccccc3C(C)(C)C)c(NC(=O)Nc3ccc(Cl)c(Cl)c3)c2)cc1C(=O)O [Example 105, 4′-(2-(tert-butyl)phenoxy)-3′-(3-(3,4-dichlorophenyl)ureido)-4-methoxy-[1,1′-biphenyl]-3-carboxylic acid]
4 | 260 | COc1ccc(-c2ccc(Oc3ccccc3C(C)(C)C)c(NC(=O)Nc3cc(C)ccc3C)c2)cc1C(=O)O [Example 95, 4′-(2-(tert-butyl)phenoxy)-3′-(3-(2,5-dimethylphenyl)ureido)-4-methoxy-[1,1′-biphenyl]-3-carboxylic acid]
5 | 540 | CC(C)(C)c1ccccc1Oc1ccc(-c2cc(Cl)cc(C(=O)O)c2)cc1NC(=O)Nc1ccc(C#N)cc1 [Example 240, 4′-(2-tert-butylphenoxy)-5-chloro-3′-(3-(4-cyanophenyl)ureido)biphenyl-3-carboxylic acid]
6 | 1630 | COc1cc(-c2ccc(Oc3ccccc3C(C)(C)C)c(NC(=O)Nc3ccccc3C)c2)ccc1C(=O)O [Example 211, 4′-(2-tert-butylphenoxy)-3-methoxy-3′-(3-o-tolylureido) biphenyl-4-carboxylic acid]
7 | 660 | Cc1ccc(NC(=O)Nc2cc(-c3cc(F)cc(C(=O)O)c3)ccc2Oc2ccccc2C(C)(C)C)cc1 [Example 252, 4′-(2-tert-butylphenoxy)-5-fluoro-3′-(3-p-tolylureido) biphenyl-3-carboxylic acid]
8 | 1390 | COc1ccc(-c2ccc(O[C@@H]3CCCC[C@H]3C)c(NC(=O)Nc3ccc(C)cc3)c2)cc1C(=O)O (relative stereo) [Example 134, 4-methoxy-4′-((trans)-2-methylcyclohexyloxy)-3′-(3-p-tolylureido)biphenyl-3-carboxylic acid]
9 | 1490 | Cc1ccc(NC(=O)Nc2cc(-c3cccc(C(=O)O)c3)ccc2Oc2ccc(Cl)cc2)cc1 [Example 248, 4′-(4-chlorophenoxy)-3′-(3-p-tolylureido) biphenyl-3-carboxylic acid]
10 | 1130 | O=C(Nc1ccccc1Cl)Nc1cc(-c2ccccc2-c2nnn[nH]2)ccc1Oc1cccc2c1CCCC2 [Example 186, 1-(2-chlorophenyl)-3-(4-(5,6,7,8-tetrahydronaphthalen-1-yloxy)-2′-(1H-tetrazol-5-yl)biphenyl-3-yl)urea]
11 | 500 | O=C(Nc1ccccc1Cl)Nc1cc(-c2ccc(C(=O)O)c(Cl)c2)ccc1Oc1ccccc1C(F)(F)F [Example 203, 3-chloro-3′-(3-(2-chlorophenyl)ureido)-4′-(2-(trifluoromethyl)phenoxy)biphenyl-4-carboxylic acid]
12 | 420 | CC(C)(C)c1ccccc1Oc1ccc(-c2cccc(C(=O)O)c2)cc1NC(=O)Nc1ccccc1Cl [Example 228, 4′-(2-tert-butylphenoxy)-3′-(3-(2-chlorophenyl)ureido)biphenyl-3-carboxylic acid]
13 | 5590 | O=C(Nc1ccc(OC(F)(F)F)cc1)Nc1cc(-c2cc(Cl)cc(C(=O)O)c2)ccc1Oc1ccccc1Cl [Example 260, 5-chloro-4′-(2-chlorophenoxy)-3′-(3-(4-(trifluoromethoxy)phenyl)ureido)biphenyl-3-carboxylic acid]
14 | 1090 | Cc1ccccc1NC(=O)Nc1cc(-c2ccc(C(=O)O)c(Cl)c2)ccc1Oc1ccccc1C(C)(C)C [Example 216, 4′-(2-tert-butylphenoxy)-3-chloro-3′-(3-o-tolylureido) biphenyl-4-carboxylic acid]
15 | 160 | COc1ccc(-c2ccc(Oc3ccccc3C(C)(C)C)c(NC(=O)Nc3cccc(F)c3)c2)cc1C(=O)O [Example 84, 4′-(2-(tert-butyl)phenoxy)-3′-(3-(3-fluorophenyl)ureido)-4-methoxy-[1,1′-biphenyl]-3-carboxylic acid]
16 | 220 | COc1ccc(-c2ccc(Oc3ccccc3C(C)(C)C)c(NC(=O)Nc3ccc4c(c3)CCC4)c2)cc1C(=O)O [Example 102, 4′-(2-(tert-butyl)phenoxy)-3′-(3-(2,3-dihydro-1H-inden-5-yl)ureido)-4-methoxy-[1,1′-biphenyl]-3-carboxylic acid]

Row | IC50 [nM] | SMILES
17 | 780 | C#CCNC(=O)Nc1cc(-c2ccc(OC)c(C(=O)O)c2)ccc1Oc1ccccc1C(C)(C)C [Example 119, 4′-(2-tert-butylphenoxy)-4-methoxy-3′-(3-prop-2-ynylureido)biphenyl-3-carboxylic acid]
18 | 3460 | CC(C)(C)c1ccccc1Oc1ccc(-c2ccc(C(=O)O)cc2)cc1NC(=O)Nc1ccc(OC(F)(F)F)cc1 [Example 265, 4′-(2-tert-butylphenoxy)-3′-(3-(4-(trifluoromethoxy)phenyl)ureido)biphenyl-4-carboxylic acid]
19 | 1060 | O=C(Nc1cc(-c2cc(Cl)cc(C(=O)O)c2)ccc1Oc1ccccc1)Nc1ccccc1C(F)(F)F [Example 250, 5-chloro-4′-phenoxy-3′-(3-(2-(trifluoromethyl)phenyl)ureido) biphenyl-3-carboxylic acid]
20 | 600 | COc1ccc(Cl)cc1NC(=O)Nc1cc(-c2ccc(OC)c(C(=O)O)c2)ccc1Oc1ccccc1C(C)(C)C [Example 109, 4′-(2-(tert-butyl)phenoxy)-3′-(3-(5-chloro-2-methoxyphenyl)ureido)-4-methoxy-[1,1′-biphenyl]-3-carboxylic acid]
21 | 110 | CCc1ccccc1Oc1ccc(-c2ccc(OC)c(C(=O)O)c2)cc1NC(=O)Nc1ccccc1Cl [Example 55, 3′-(3-(2-chlorophenyl)ureido)-4′-(2-ethylphenoxy)-4-methoxybiphenyl-3-carboxylic acid]
22 | 430 | COc1ccc(-c2ccc(Oc3ccccc3C(C)(C)C)c(NC(=O)Nc3ccc(C)cc3)c2)cc1C(=O)NS(C)(=O)=O [Example 41, 4′-(2-tert-butylphenoxy)-4-methoxy-N-(methylsulfonyl)-3′-(3-p-tolylureido)biphenyl-3-carboxamide]
23 | 240 | COc1ccc(-c2ccc(Oc3ccccc3C(C)(C)C)c(NC(=O)Nc3cccc(C)c3C)c2)cc1C(=O)O [Example 92, 4′-(2-(tert-butyl)phenoxy)-3′-(3-(2,3-dimethylphenyl)ureido)-4-methoxy-[1,1′-biphenyl]-3-carboxylic acid]
24 | 260 | CCCCNC(=O)Nc1cc(-c2ccc(OC)c(C(=O)O)c2)ccc1Oc1ccccc1C(C)(C)C [Example 90, 4′-(2-(tert-butyl)phenoxy)-3′-(3-(n-butyl)ureido)-4-methoxy-[1,1′-biphenyl]-3-carboxylic acid]
25 | 1050 | Cc1cccc(NC(=O)Nc2cc(-c3ccccc3-c3nnn[nH]3)ccc2Oc2ccccc2C(C)(C)C)c1 [Example 182, 1-(4-(2-tert-butylphenoxy)-2′-(1H-tetrazol-5-yl)biphenyl-3-yl)-3-m-tolylurea]
26 | 730 | Cc1ccc(NC(=O)Nc2cc(-c3ccccc3C(=O)NS(C)(=O)=O)ccc2Oc2ccccc2C(C)(C)C)cc1 [Example 6, 4′-(2-tert-Butylphenoxy)-N-(methylsulfonyl)-3′-(3-p-tolylureido)biphenyl-2-carboxamide]
27 | 2250 | COc1cc(-c2ccc(Oc3ccccc3C(C)(C)C)c(NC(=O)Nc3ccc(C)cc3)c2)ccc1C(=O)O [Example 258, 4′-(2-tert-butylphenoxy)-3-methoxy-3′-(3-p-tolylureido) biphenyl-4-carboxylic acid]
28 | 1690 | CC(C)(C)c1ccccc1Oc1ccc(-c2ccc(C(=O)O)cc2)cc1NC(=O)Nc1ccccc1Cl [Example 202, 4′-(2-tert-butylphenoxy)-3′-(3-(2-chlorophenyl)ureido)biphenyl-4-carboxylic acid]
29 | 1010 | COc1ccc(-c2ccc(Oc3ccccc3C(C)(C)C)c(NC(=O)Nc3ccc(N(C)C)cc3)c2)cc1C(=O)O [Example 101, 4′-(2-(tert-butyl)phenoxy)-3′-(3-(4-(dimethylamino)phenyl)ureido)-4-methoxy-[1,1′-biphenyl]-3-carboxylic acid]
30 | 87900 | Cc1ccc(NC(=O)Nc2cc(-c3ccc(C(=O)O)cc3)cnc2Oc2ccccc2)cc1 [Example 338]
31 | 120 | CCCNC(=O)Nc1cc(-c2ccc(OC)c(C(=O)O)c2)ccc1Oc1ccccc1C(C)(C)C [Example 89, 4′-(2-(tert-butyl)phenoxy)-3′-(3-(n-propyl)ureido)-4-methoxy-[1,1′-biphenyl]-3-carboxylic acid]
32 | 1040 | CC(C)(C)c1ccccc1Oc1ccc(-c2cc(Cl)cc(C(=O)O)c2)cc1NC(=O)Nc1ccc(C(F)(F)F)cc1 [Example 241, 4′-(2-tert-butylphenoxy)-5-chloro-3′-(3-(4-(trifluoromethyl)phenyl)ureido) biphenyl-3-carboxylic acid]
